Patent publication US10441591B2, “Applications for etonogestrel in preparing anti-prostate cancer products” (SHANGHAI JIAO TONG UNIVERSITY, priority 2015, dated 2019)
pEC50, pIC50: −log10 of the molar value.

Assays:
Assay type in all cases: cell-based
[1] = test system: NCI-H2122 human lung cancer cells; experiment: CellTiter-Glo luminescent cell viability assay, NCI-H2122; details: 72 hours
[2] = test system: DU-145 prostate cancer cells; experiment: CellTiter-Glo luminescent cell viability assay, DU-145
Procedure: In example 1, CELLTITER-GLO was used to test etonogestrel against prostate cancer. DU-145 cells were handled as described above, and a DU-145 96-well cell culture plate was obtained. The complete medium for DU-145 cells was RPMI-1640 (a live product), Cat# A1049101, with a cells/well density of 4000. 2. The drug analyte etonogestrel was prepared and administered (200× final concentration): a) DMSO was used to dilute the analyte etonogestrel to 20 mM for use. 79 μL of the 20 mM analyte prepared in step a) was added to the first well in the first row of the dilution plate, and then 54 μL of DMSO solution was added to the second through ninth wells of the first row. 25 μL of solution was aspirated from the first to the second well, and after mixing well 25 μL of solution was aspirated from the second to the third well, and this was repeated until the 9th well in order to ensure that 3.16 dilution of the medication would be carried out one-by-one. b) 95 μl of cell-specific complete medium was added to the working plate, each medication to 9 wells. […] The final concentrations (μM) of the analyte drug in wells 2-10 in FIG. 1 are, in order: 100, 31.64557, 10.01442, 3.16912, 1.002886, 0.317369, 0.100433, 0.031783, 0.010058; a) Before testing, the DU-145 96-well drug screening plate described in 3 above was stabilized to room temperature for 20-30 minutes. c) 100 μl of CellTiter-Glo reagent (prepared as described in 1 above) was added to all drug screening plates and mixed evenly. d) It was thoroughly oscillated in a 96-well microplate oscillator for 2 minutes to allow the cells to undergo full lysis. e) It was stored away from light at room temperature for 15 minutes before carrying out luminescent signal detection to ensure signal stability. f) An EnSpire multi-function plate reader was used at […] to read the luminescent signals. g) Data was processed and analyzed.

[3] = test system: NCI-H1703 human lung squamous carcinoma cells; experiment: CellTiter-Glo luminescent cell viability assay, NCI-H1703; details: 72 hours

With `C#C[C@]1(O)CC[C@H]2[C@@H]3CCC4=CC(=O)CC[C@@H]4[C@H]3C(=C)C[C@@]21CC` [etonogestrel] the pIC50 [1] was ≤ 4.00, the “inhibitory effect on the proliferation of prostate cancer cells” value ([2]; DU-145 compared with NCI-H1703 and NCI-H2122) was “specific inhibitory effect on the proliferation of prostate cancer cells” and the pIC50 ([2]; Homo sapiens, DU-145 cells, 72 hours, CellTiter-Glo) was 4.80. The pEC50 ([2]; Homo sapiens, DU-145 cells, FIG. 2 dose-response curve, 72 hours) was 4.93 and the pIC50 [3] was ≤ 4.00.
